The values below come from ChEMBL document CHEMBL5465560, “Selectivity Literature for EUbOPEN Chemogenomic Library” (2024).

What is called Ki is the equilibrium dissociation constant of an inhibitor or competing ligand from its target. Higher therefore signals a looser hold on the target.

The target of test [1] is Dual specificity mitogen-activated protein kinase kinase 1 (Homo sapiens, UniProt Q02750). The test can be described thus: Selectivity interaction (Kinase panel (KiNativ target engagement assay in Jurkat cells)) EUB0001635a MAP2K1. The format is cell-based. The conditions noted are these: Selectivity number of off-targets 0.0, Selectivity number of targets 233.0, Source Knowledge https://www.sciencedirect.com/science/article/pii/S2451945619300674?via%3Dihub, at 1 µM.
Sequence of Dual specificity mitogen-activated protein kinase kinase 1 (Q02750 whole entry): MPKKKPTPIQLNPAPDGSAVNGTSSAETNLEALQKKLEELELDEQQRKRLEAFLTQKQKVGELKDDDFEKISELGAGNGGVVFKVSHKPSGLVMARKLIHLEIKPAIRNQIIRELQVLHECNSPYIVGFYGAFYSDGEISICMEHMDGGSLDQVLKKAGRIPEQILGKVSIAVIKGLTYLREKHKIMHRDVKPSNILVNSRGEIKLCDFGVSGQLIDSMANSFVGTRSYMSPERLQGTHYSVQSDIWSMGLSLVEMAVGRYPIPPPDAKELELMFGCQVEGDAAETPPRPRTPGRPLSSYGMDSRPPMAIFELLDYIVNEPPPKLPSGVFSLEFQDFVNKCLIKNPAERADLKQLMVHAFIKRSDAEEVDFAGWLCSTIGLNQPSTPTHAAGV

Test [2] deals with Transient receptor potential cation channel subfamily M member 6 (Homo sapiens) (UniProt Q9BX84). Briefly: Selectivity interaction (Ambit KINOMEscan and KiNATiv profiling in Jurkat cells) EUB0000090b TRPM6. To be noted: at 1 µM. Format: cell-based.
Sequence of Transient receptor potential cation channel subfamily M member 6 (Homo sapiens) (Q9BX84 whole entry): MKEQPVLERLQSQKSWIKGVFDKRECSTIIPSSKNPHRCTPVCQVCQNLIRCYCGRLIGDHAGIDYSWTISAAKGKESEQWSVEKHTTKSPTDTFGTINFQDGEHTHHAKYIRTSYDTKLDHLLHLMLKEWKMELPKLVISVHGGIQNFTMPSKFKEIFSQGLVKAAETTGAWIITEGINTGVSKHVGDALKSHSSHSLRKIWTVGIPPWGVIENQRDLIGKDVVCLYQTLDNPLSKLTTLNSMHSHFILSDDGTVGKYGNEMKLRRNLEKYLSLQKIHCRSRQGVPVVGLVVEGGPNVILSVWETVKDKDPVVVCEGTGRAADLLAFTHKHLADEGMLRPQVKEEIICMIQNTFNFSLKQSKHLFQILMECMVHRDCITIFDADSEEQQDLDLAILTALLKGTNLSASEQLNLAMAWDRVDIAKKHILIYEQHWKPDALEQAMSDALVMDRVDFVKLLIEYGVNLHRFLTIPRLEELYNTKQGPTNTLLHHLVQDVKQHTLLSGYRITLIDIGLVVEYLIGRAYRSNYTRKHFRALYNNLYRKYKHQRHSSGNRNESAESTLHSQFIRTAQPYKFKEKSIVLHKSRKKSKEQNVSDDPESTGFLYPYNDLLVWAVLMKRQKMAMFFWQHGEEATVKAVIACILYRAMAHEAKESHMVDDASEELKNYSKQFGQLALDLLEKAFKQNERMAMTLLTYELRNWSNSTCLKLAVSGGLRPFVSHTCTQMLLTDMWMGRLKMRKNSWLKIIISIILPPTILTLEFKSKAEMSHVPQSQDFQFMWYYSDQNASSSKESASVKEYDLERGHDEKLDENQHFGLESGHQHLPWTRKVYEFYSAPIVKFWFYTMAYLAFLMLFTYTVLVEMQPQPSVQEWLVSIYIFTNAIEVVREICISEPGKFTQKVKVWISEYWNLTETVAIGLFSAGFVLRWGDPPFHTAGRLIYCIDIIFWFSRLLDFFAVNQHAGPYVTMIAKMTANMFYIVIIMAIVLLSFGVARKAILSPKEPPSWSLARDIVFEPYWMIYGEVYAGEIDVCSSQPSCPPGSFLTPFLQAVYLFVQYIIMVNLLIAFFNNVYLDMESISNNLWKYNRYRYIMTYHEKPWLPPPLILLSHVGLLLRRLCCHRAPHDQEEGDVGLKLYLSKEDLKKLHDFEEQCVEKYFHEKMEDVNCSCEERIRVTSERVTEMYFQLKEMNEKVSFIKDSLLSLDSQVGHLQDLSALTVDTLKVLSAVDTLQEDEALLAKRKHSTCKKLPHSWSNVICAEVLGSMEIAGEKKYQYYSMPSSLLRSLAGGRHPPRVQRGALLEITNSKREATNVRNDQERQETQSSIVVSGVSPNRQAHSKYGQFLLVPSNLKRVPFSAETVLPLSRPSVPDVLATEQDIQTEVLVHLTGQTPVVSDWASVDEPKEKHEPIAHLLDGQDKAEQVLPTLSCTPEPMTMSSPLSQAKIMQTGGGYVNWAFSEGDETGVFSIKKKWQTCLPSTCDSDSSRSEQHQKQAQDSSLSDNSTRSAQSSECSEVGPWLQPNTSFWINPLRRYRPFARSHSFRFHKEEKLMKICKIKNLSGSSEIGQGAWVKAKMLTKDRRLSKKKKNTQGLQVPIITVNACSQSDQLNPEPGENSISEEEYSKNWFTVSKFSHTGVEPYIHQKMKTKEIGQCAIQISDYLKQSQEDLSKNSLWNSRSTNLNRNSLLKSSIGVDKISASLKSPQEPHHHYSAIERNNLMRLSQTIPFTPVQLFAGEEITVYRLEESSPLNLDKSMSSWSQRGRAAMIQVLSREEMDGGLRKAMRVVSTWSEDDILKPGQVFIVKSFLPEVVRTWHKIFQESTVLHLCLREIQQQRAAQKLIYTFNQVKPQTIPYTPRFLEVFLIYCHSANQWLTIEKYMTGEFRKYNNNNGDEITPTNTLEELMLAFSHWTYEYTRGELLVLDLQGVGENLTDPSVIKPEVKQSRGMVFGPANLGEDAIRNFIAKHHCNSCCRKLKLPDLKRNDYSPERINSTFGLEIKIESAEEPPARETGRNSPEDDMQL
Test [3] deals with 4-aminobutyrate aminotransferase, mitochondrial (Homo sapiens, UniProt P80404). The test can be described thus: Selectivity interaction (GPCR panel (PDSP screen)) EUB0000311b ABAT.
For test [4], the target named is Serine/threonine-protein kinase 26 (Homo sapiens, UniProt Q9P289). Briefly: Selectivity interaction (KinomeScan (DiscoverX)) EUB0001079a STK26. The conditions noted are these: at 1 µM.
For the next test, the target named is Histamine H1 receptor (Homo sapiens, UniProt P35367). The test can be described thus: Selectivity interaction (GPCR panel (PDSP screen)) EUB0001079a HRH1. The conditions noted are these: at 10 µM.
Sequence of Histamine H1 receptor (P35367 whole entry): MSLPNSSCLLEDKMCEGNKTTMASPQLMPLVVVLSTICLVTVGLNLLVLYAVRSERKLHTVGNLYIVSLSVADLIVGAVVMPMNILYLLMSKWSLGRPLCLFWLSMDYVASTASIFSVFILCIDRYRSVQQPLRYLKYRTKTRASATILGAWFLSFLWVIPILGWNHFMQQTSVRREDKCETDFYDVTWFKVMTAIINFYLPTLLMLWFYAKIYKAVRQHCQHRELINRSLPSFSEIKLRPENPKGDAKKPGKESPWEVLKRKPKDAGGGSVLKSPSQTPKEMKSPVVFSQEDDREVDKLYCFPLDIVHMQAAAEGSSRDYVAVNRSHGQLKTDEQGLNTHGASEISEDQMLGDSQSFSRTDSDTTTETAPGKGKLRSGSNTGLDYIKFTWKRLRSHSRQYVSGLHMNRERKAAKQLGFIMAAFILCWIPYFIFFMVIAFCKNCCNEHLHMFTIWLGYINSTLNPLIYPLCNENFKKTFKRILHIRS
Test [5] addresses Homeodomain-interacting protein kinase 2 (Homo sapiens, UniProt Q9H2X6). Briefly: Selectivity interaction (KinomeScan (DiscoverX)) EUB0001619a HIPK2. The conditions noted are these: at 1 µM.
Test [6] addresses T1, Serine/threonine-protein kinase ULK1 (Homo sapiens) (UniProt O75385).
T1 sequence (whole entry): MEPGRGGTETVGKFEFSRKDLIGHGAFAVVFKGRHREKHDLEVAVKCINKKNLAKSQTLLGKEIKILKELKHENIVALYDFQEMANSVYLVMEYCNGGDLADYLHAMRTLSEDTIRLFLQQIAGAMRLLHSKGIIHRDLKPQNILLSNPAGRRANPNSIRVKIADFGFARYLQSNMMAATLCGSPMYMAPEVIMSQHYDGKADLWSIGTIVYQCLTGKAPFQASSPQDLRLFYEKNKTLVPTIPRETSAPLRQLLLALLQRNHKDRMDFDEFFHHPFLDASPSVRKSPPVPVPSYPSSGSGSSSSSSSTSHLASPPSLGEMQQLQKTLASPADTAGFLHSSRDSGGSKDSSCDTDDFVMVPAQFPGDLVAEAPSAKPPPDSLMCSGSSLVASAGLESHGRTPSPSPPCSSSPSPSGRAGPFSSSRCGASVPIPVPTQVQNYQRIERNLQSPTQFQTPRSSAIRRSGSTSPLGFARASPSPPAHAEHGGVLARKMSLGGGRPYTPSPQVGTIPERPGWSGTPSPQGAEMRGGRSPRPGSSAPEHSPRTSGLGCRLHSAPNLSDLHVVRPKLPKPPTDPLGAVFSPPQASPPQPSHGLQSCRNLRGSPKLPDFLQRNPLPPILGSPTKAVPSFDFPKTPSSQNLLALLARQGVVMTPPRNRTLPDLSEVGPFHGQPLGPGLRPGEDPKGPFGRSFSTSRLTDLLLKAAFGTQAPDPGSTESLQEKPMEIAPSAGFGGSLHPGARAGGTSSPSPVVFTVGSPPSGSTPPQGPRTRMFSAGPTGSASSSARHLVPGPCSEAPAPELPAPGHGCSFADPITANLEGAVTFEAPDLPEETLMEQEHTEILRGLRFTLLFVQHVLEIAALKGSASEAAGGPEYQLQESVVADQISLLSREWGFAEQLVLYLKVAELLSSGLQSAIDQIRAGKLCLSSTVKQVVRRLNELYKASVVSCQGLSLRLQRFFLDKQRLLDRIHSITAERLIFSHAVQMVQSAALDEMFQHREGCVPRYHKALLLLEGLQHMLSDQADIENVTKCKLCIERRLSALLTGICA
Briefly: Selectivity interaction (ActivX KiNativ screen (kinase selectivity in THP-1 cell lysates)) EUB0000639a ULK1. Format: subcellular. To be noted: lysate, at 0.2 µM.

Test [7] concerns the target T2, Aurora kinase A (Homo sapiens) (UniProt O14965).
T2 sequence (whole entry): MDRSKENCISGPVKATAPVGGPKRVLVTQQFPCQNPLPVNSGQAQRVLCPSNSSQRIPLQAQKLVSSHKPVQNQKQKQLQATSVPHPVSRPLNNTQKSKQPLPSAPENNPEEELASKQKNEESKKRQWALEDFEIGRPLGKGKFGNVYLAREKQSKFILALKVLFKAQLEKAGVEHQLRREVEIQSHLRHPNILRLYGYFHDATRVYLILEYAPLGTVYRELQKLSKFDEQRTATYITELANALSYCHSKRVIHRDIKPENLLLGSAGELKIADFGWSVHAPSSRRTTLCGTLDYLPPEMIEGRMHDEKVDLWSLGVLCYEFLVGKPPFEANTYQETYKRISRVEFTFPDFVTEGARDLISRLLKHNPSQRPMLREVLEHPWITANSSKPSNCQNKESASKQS
The test can be described thus: Selectivity interaction (ActivX KiNativ screen (kinase selectivity in THP-1 cell lysates)) EUB0000639a STK6. Format: subcellular. To be noted: lysate, at 0.01 µM.

Test [8] deals with T3, Mitogen-activated protein kinase 13 (Homo sapiens) (UniProt O15264).
T3 sequence (whole entry): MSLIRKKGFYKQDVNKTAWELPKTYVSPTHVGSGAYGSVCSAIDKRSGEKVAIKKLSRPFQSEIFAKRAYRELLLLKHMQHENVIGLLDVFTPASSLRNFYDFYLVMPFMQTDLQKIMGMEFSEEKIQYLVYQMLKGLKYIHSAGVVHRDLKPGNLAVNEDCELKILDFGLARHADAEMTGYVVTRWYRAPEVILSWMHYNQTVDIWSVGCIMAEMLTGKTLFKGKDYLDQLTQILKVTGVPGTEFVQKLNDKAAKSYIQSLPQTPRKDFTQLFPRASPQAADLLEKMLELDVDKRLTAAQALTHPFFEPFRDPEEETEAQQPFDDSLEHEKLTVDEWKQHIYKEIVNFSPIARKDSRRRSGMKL
Briefly: Selectivity interaction (Kinase screening (Upstate/Millipore)) EUB0000604a MAPK13.

The target in test [9] is Tyrosine-protein kinase Fes/Fps (Homo sapiens) (UniProt P07332). Briefly: Selectivity interaction (KinomeScan (DiscoverX)) EUB0000695a FES. To be noted: at 100 nM.
Test [10] concerns the target Serine/threonine-protein kinase PAK 6 (Homo sapiens) (UniProt Q9NQU5). The test can be described thus: Selectivity interaction (ProQinase) EUB0000171b PAK6.
The target in another test is D(1A) dopamine receptor (Homo sapiens, UniProt P21728). The test can be described thus: Selectivity interaction (Eurofins CEREP Diversity Profile (receptors and ion channels)) EUB0000279b DRD1. The conditions noted are these: at 10 µM.
The target in a further test is Misshapen-like kinase 1 (Homo sapiens, UniProt Q8N4C8). The test can be described thus: Selectivity interaction (KinomeScan (DiscoverX)) EUB0000595a MINK1. To be noted: at 10 µM.

Sequence of Serine/threonine-protein kinase PAK 6 (Homo sapiens) (Q9NQU5 whole entry, looked up): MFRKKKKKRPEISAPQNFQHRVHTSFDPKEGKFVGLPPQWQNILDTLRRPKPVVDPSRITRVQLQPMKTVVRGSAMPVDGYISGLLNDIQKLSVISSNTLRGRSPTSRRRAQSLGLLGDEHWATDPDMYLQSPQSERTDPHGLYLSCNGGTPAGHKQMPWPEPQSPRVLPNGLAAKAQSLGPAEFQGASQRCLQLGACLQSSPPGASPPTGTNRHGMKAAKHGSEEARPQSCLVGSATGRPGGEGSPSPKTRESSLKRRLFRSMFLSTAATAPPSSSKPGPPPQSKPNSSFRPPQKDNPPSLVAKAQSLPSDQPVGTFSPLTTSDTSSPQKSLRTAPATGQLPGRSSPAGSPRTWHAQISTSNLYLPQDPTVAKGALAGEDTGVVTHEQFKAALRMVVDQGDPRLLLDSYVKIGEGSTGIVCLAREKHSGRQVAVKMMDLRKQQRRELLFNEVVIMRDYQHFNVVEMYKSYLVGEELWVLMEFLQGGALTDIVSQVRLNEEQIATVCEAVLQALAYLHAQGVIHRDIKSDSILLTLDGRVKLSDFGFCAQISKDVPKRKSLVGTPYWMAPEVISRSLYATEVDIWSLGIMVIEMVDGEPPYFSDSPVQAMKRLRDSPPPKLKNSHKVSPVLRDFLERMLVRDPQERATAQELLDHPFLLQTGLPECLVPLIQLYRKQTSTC
Sequence of Homeodomain-interacting protein kinase 2 (Q9H2X6 whole entry, looked up): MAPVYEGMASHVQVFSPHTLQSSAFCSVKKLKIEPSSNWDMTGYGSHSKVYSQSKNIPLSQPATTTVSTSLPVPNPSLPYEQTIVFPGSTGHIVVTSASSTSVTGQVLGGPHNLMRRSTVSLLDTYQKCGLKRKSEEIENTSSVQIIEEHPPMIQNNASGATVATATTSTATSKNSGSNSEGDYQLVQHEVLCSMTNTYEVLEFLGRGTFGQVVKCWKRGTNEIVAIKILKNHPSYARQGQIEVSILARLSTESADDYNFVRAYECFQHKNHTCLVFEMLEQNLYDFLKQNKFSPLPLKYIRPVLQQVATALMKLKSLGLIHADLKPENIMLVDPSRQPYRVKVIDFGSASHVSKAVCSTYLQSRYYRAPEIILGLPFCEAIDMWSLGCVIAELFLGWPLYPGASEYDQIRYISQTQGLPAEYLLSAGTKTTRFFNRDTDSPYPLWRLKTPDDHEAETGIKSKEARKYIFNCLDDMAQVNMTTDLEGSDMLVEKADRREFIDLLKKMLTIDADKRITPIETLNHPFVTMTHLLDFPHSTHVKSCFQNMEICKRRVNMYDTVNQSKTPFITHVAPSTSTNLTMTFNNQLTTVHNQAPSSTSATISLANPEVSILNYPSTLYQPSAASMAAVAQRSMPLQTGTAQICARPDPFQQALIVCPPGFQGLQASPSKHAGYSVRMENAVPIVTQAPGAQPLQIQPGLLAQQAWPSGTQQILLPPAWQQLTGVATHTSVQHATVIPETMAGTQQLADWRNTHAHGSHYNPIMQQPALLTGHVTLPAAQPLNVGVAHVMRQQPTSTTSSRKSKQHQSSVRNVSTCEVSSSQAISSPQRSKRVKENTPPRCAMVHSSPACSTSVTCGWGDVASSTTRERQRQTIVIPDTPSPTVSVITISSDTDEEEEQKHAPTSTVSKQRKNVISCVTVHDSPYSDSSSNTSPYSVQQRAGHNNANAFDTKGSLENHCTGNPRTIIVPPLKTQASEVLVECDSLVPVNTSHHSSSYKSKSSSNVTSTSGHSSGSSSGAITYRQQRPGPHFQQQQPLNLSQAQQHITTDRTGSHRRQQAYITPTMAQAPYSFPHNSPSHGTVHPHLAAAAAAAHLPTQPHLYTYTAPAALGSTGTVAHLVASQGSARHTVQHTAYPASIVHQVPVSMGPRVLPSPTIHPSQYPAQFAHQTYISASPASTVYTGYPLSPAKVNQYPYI

Compound `C=CC(=O)Nc1ccc(C(=O)Nc2[nH]nc3c2CN(C(=O)N[C@H](CN(C)C)c2ccccc2)C3(C)C)cc1` gave a % of engagement in [1] of 4.8%.

For `CN(C)C/C=C/C(=O)Nc1ccc(C(=O)N2CCCC(Nc3ncc(Cl)c(-c4c[nH]c5ccccc45)n3)C2)cc1` (centres undefined), in test [2], the % of control came out at 88%.

`CCc1ccccc1C(=O)Nc1n[nH]c2c(C)c(F)c(C3C(C#N)=C(C)N(C)C(C)=C3C#N)cc12` [BAY-3827] returned a Ki in [3] of 222 nM.

On to `Nc1cnc(N2CCc3cc(S(=O)(=O)Nc4c(F)cc(Cl)cc4F)cc(N4CCCC4=O)c32)nc1` [TP-020n], for which the % of control in test [4] was 83%. The % of inhibition at Histamine H1 receptor amounted to 8.19%.

Take `N#Cc1cccc(-c2c[nH]c3ncnc(N4CCOCC4)c23)c1`: the % of control in test [5] came to 65%.

`CC[C@@H]1[C@H](F)C(=O)N[C@@H]1COc1nccc2cc(C(N)=O)c(OC)cc12` [ZIMLOVISERTIB]: the % of inhibition in test [6] is -29.3%; in [7], -3.4%.

For `Cc1cnc(Nc2ccc(F)cc2Cl)nc1-c1c[nH]c(C(=O)N[C@H](CO)c2cccc(Cl)c2)c1`, in test [8], the % of inhibition was 54%.

With `Cc1cc(F)c(C(=O)Nc2cccc(-c3nncn3C(C)C)n2)cc1-n1cnc(C2CC2)c1`, the % of control in test [9] amounted to 100%.

As to `C=CC(=O)Nc1cccc(C(=O)Nc2ccc(Nc3cc(-c4[nH]c(SC)nc4C)ccn3)cc2)c1`, the % of control came to 92% in test [10] (at 1 µM) and 76% in test [10] (at 5 µM).

In the case of `CC(=O)c1cc(-c2ccccc2OCC2CC2)c2ncccn12`, on D(1A) dopamine receptor, the % of control was 90%.

Consider `COCC(=O)NC/C=C/c1ccc2ncnc(Nc3ccc(Oc4ccc(C)nc4)c(C)c3)c2c1` [CP-724714], for which the % of control at Misshapen-like kinase 1 is 77%.
